Legend:
HBV = test: Determination of HBV DNA from the supernatants of HepAD38 cells (anti-HBV activity); type: cell-based, hepatitis B virus; conditions: Hepatitis B virus, HePAD38, 144 h, HBV DNA in HepAD38 supernatant, day 6, qPCR; read-out: Cell Activity
Procedure: The anti-HBV activity was analysed in the stable transfected cell line HepAD38, which has been described to secrete high levels of HBV virion particles (Ladner et al., 1997). In brief, HepAD38 cells were cultured at 37° C. at 5% CO2 and 95% humidity in 200 μl maintenance medium, which was Dulbecco's modified Eagle's medium/Nutrient Mixture F-12 (Gibco, Karlsruhe), 10% fetal bovine serum (PAN Biotech Aidenbach) supplemented with 50 μg/ml penicillin/streptomycin (Gibco, Karlsruhe), 2 mM L-glutamine (PAN Biotech, Aidenbach), 400 μg/ml G418 (AppliChem, Darmstadt) and 0.3 μg/ml tetracycline. Cells were subcultured once a week in a 1:5 ratio, but were usually not passaged more than ten times. For the assay 60,000 cells were seeded in maintenance medium without any tetracycline into each well of a 96-well plate and treated with serial half-log dilutions of test compound. To minimize edge effects the outer 36 wells of the plate were not used but were filled with assay medium. On each assay plate six wells for the virus control (untreated HepAD38 cells) and six wells for the cell control (HepAD38 cells treated with 0.3 μg/ml tetracycline) were allocated, respectively. In addition, one plate set with reference inhibitors like BAY 41-4109, entecavir, and lamivudine instead of screening compounds were prepared in each experiment. In general, experiments were performed thrice in triplicates. At day 6 HBV DNA from 100 μl filtrated cell culture supernatant (AcroPrep Advance 96 Filter Plate, […] Supor membran, PALL GmbH, Dreieich) was automatically purified on the MagNa Pure LC instrument using the MagNA Pure 96 DNA and Viral NA Small Volume Kit (Roche Diagnostics, Mannheim) according to the instructions of the manufacturer. EC50 values were calculated from relative copy numbers of HBV DNA In brief, 5 μl of the 100 μl eluate containing HBV DNA were subjected to PCR LC480 Probes Master Kit (Roche) together with 1 μM antisense primer […], 0.5 μM sense primer […], 0.3 μM hybprobes […]-FL and LC640-[…]-PH (TIBMolBiol, Berlin) to a final volume of 12.5 μl. The PCR was performed on the Light Cycler 480 real time system (Roche Diagnostics, Mannheim) using the following protocol: Pre-incubation for 1 min at 95° C., amplification: 40 cycles×(10 sec at 95° C., 50 sec at 60° C., 1 sec at 70° C.), cooling for 10 sec at 40° C. Viral load was quantitated against known standards using HBV plasmid DNA of pCH-9/3091 (Nassal et al., 1990, Cell 63: 1357-1363) and the LightCycler 480 SW 1.5 software (Roche Diagnostics, Mannheim) and ECso values were calculated using non-linear regression with GraphPad Prism 6 (GraphPad Software Inc., La Jolla, USA).

[1] = molecular target: HBV core protein (C-terminal truncated core protein containing 149 amino acids of the N-terminal assembly domain) (UniProt P03146); test: Biochemical capsid assembly assay (fluorescence quenching); parameters: rows headed: Assembly Activity; other: BODIPY-FL labelled core protein, assembly started with NaCl, read after 6 min; conditions: read-out: Assembly Activity; BODIPY-FL labelled core protein, assembly started with NaCl, read after 6 min
HBV core protein (C-terminal truncated core protein containing 149 amino acids of the N-terminal assembly domain), sequence (P03146 whole entry, the tested form may be a part): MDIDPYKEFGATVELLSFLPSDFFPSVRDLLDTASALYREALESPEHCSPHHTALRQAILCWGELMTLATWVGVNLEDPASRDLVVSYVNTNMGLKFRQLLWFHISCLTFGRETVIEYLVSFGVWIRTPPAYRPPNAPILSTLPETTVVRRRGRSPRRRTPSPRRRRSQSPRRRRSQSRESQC
Procedure: The screening for assembly effector activity was done based on a fluorescence quenching assay published by Zotnick et al. (2007). The C-terminal truncated core protein containing 149 amino acids of the N-terminal assembly domain fused to a unique cysteine residue at position 150 and was expressed in E. coli using the pET expression system (Merck Chemicals, Darmstadt). Purification of core dimer protein was performed using a sequence of size exclusion chromatography steps. In brief, the cell pellet from 1 L BL21 (DE3) Rosetta2 culture expressing the coding sequence of core protein cloned NdeI/XhoI into expression plasmid pET21b was treated for 1 h on ice with a native lysis buffer (Qproteome Bacterial Protein Prep Kit; Qiagen, Hilden). After a centrifugation step the supernatant was precipitated during 2 h stirring on ice with 0.23 g/ml of solid ammonium sulfate. Following further centrifugation the resulting pellet was resolved in buffer A (100 mM Tris, pH 7.5; 100 mM NaCl; 2 mM DTT) and was subsequently loaded onto a buffer A equilibrated CaptoCore 700 column (GE HealthCare, Frankfurt). The column flow through containing the assembled HBV capsid was dialyzed against buffer N (50 mM NaHCO3 pH 9.6; 5 mM DTT) before urea was added to a final concentration of 3M to dissociate the capsid into core dimers for 1.5 h on ice. The protein solution was then loaded onto a IL Sephacryl S300 column. After elution with buffer N core dimer containing fractions were identified by SDS-PAGE and subsequently pooled and dialyzed against 50 mM HEPES pH 7.5; 5 mM DTT. To improve the assembly capacity of the purified core dimers a second round of assembly and disassembly starting with the addition of 5 M NaCl and including the size exclusion chromatography steps described above was performed. From the last chromatography step core dimer containing fractions were pooled and stored in aliquots at concentrations between 1.5 to 2.0 mg/ml at −80° C.
Immediately before labelling the core protein was reduced by adding freshly prepared DTT in a final concentration of 20 mM. After 40 min incubation on ice storage buffer and DTT was removed using a Sephadex G-25 column (GE HealthCare, Frankfurt) and 50 mM HEPES, pH 7.5. For labelling 1.6 mg/ml core protein was incubated at 4° C. and darkness overnight with BODIPY-FL maleimide (Invitrogen, Karlsruhe) in a final concentration of 1 mM. After labelling the free dye was removed by an additional desalting step using a Sephadex G-25 column. Labelled core dimers were stored in aliquots at 4° C. In the dimeric state the fluorescence signal of the labelled core protein is high and is quenched during the assembly of the core dimers to high molecular capsid structures. The screening assay was performed in black 384 well microtiter plates in a total assay volume of 10 μl using 50 mM HEPES pH 7.5 and 1.0 to 2.0 μM labelled core protein. Each screening compound was added in 8 different concentrations using a 0.5 log-unit serial dilution starting at a final concentration of 100 μM, 31.6 μM or 10 μM, In any case the DMSO concentration over the entire microtiter plate was 0.5%. The assembly reaction was started by the injection of NaCl to a final concentration of […] which induces the assembly process to approximately 25% of the maximal quenched signal. 6 min after starting the reaction the fluorescence signal was measured using a Clariostar plate reader (BMG Labtech, Ortenberg) with an excitation of 477 nm and an emission of 525 nm. As 100% and 0% assembly control HEPES buffer containing 2.5 M and 0 M NaCl was used. Experiments were performed thrice in triplicates. EC50 values were calculated by non-linear regression analysis using the Graph Pad Prism 6 software (GraphPad Software, La Jolla, USA).

[2] = Cell viability assay (AlamarBlue); conditions: human, HepAD38 cells

Compound	EC50 (HBV) [µM]	IC50 [1] [µM]	CC50 at 6 days [2] [µM]
COCC1(N(C)C(=O)c2cnn3c2CN(C(=O)c2cc4ccccc4[nH]2)CC3)CC1 [Example 9, 5-(1H-indole-2-carbonyl)-N-[1-(methoxymethyl)cyclopropyl]-N-methyl-4H,5H,6H,7H-pyrazolo[1,5-a]pyrazine-3-carboxamide]	< 1	< 5	> 10
COCC1(CNC(=O)c2cnn3c2CN(C(=O)c2cc4ccccc4[nH]2)CC3)CC1 [Example 10, 5-(1H-indole-2-carbonyl)-N-{[1-(methoxymethyl)cyclopropyl]methyl}-4H,5H,6H,7H-pyrazolo[1,5-a]pyrazine-3-carboxamide]	1 to 10	5 to 10	> 10
CC(C)OCC1(N(C)C(=O)c2cnn3c2CN(C(=O)c2cc4ccccc4[nH]2)CC3)CC1 [Example 11, 5-(1H-indole-2-carbonyl)-N-methyl-N-{1-[(propan-2-yloxy)methyl]cyclopropyl}-4H,5H,6H,7H-pyrazolo[1,5-a]pyrazine-3-carboxamide]	< 1	< 5	> 10
CCOCC1(N(C)C(=O)c2cnn3c2CN(C(=O)c2cc4ccccc4[nH]2)CC3)CC1 [Example 12, N-[1-(ethoxymethyl)cyclopropyl]-5-(1H-indole-2-carbonyl)-N-methyl-4H,5H,6H,7H-pyrazolo[1,5-a]pyrazine-3-carboxamide]	< 1	< 5	> 10
CN(C(=O)c1cnn2c1CN(C(=O)c1cc3c(Cl)cccc3[nH]1)CC2)C1(CO)CC1 [Example 13, 5-(4-chloro-1H-indole-2-carbonyl)-N-[1-(hydroxymethyl)cyclopropyl]-N-methyl-4H,5H,6H,7H-pyrazolo[1,5-a]pyrazine-3-carboxamide]	< 1	< 5	> 10
CCc1cc(F)cc2[nH]c(C(=O)N3CCn4ncc(C(=O)N(C)C5(CO)CC5)c4C3)cc12 [Example 14, 5-(4-ethyl-6-fluoro-1H-indole-2-carbonyl)-N-[1-(hydroxymethyl)cyclopropyl]-N-methyl-4H,5H,6H,7H-pyrazolo[1,5-a]pyrazine-3-carboxamide]	< 1	< 5	> 10
CN(C(=O)c1cnn2c1CN(C(=O)c1cc3ccccc3[nH]1)CC2)C1(CO)CC1 [Example 15, N-[1-(hydroxymethyl)cyclopropyl]-5-(1H-indole-2-carbonyl)-N-methyl-4H,5H,6H,7H-pyrazolo[1,5-a]pyrazine-3-carboxamide]	< 1	< 5	> 10
CN(C(=O)c1cnn2c1CN(C(=O)c1cc3ccccc3[nH]1)CC2)C1(COC(F)F)CC1 [Example 16, N-{1-[(difluoromethoxy)methyl]cyclopropyl}-5-(1H-indole-2-carbonyl)-N-methyl-4H,5H,6H,7H-pyrazolo[1,5-a]pyrazine-3-carboxamide]	< 1	< 5	> 10
O=C(c1cc2ccccc2[nH]1)N1CCn2ncc(C(=O)N3CC(F)(F)CC34CC4)c2C1 [Example 19, 2-(3-{6,6-difluoro-4-azaspiro[2.4]heptane-4-carbonyl}-4H,5H,6H,7H-pyrazolo[1,5-a]pyrazine-5-carbonyl)-1H-indole]	< 1	< 5	> 10
CC1Cn2ncc(C(=O)N(C)C3(COC(F)F)CC3)c2CN1C(=O)c1cc2ccccc2[nH]1 (stereo not drawn) [Example 20, N-{1-[(difluoromethoxy)methyl]cyclopropyl}-5-(1H-indole-2-carbonyl)-N,6-dimethyl-4H,5H,6H,7H-pyrazolo[1,5-a]pyrazine-3-carboxamide]	< 1	< 5	> 10
CN(C(=O)c1cnn2c1CN(C(=O)c1cc3c(F)c(F)ccc3[nH]1)CC2)C1(COC(F)F)CC1 [Example 21, 5-(4,5-difluoro-1H-indole-2-carbonyl)-N-{1-[(difluoromethoxy)methyl]cyclopropyl}-N-methyl-4H,5H,6H,7H-pyrazolo[1,5-a]pyrazine-3-carboxamide]	< 1	< 5	> 10
CCc1cc(F)cc2[nH]c(C(=O)N3CCn4ncc(C(=O)N(C)C5(COC(F)F)CC5)c4C3)cc12 [Example 22, N-{1-[(difluoromethoxy)methyl]cyclopropyl}-5-(4-ethyl-6-fluoro-1H-indole-2-carbonyl)-N-methyl-4H,5H,6H,7H-pyrazolo[1,5-a]pyrazine-3-carboxamide]	< 1	< 5	> 10
CN(C(=O)c1cnn2c1CN(C(=O)c1cc3cc(F)c(Cl)cc3[nH]1)CC2)C1(COC(F)F)CC1 [Example 23, 5-(6-chloro-5-fluoro-1H-indole-2-carbonyl)-N-{1-[(difluoromethoxy)methyl]cyclopropyl}-N-methyl-4H,5H,6H,7H-pyrazolo[1,5-a]pyrazine-3-carboxamide]	< 1	< 5	> 10
CN(C(=O)c1cnn2c1CN(C(=O)c1cc3c(F)ccc(F)c3[nH]1)CC2)C1(COC(F)F)CC1 [Example 24, 5-(4,7-difluoro-1H-indole-2-carbonyl)-N-{1-[(difluoromethoxy)methyl]cyclopropyl}-N-methyl-4H,5H,6H,7H-pyrazolo[1,5-a]pyrazine-3-carboxamide]	< 1	< 5	> 10

— patent US20220363686A1 (AiCuris GmbH & Co. KG, priority 2018, published 2022)
